Assay results reported in patent US20080027042A1, “Novel Aminopyridine Derivatives Having Aurora a Selective Inhibitory Action” (priority 2004, published 2008).
Several values for one entry are separate records, joined by “and”; a condition that tells them apart may be missing. Equal entries are not always repeated.

Legend:
Aurora A = target: T1, Aurora A (Homo sapiens, UniProt O14965); assay: Aurora A inhibitory action (33P-ATP kinase assay, Kemptide substrate); format: biochemical; conditions: 20 μM ATP, 30° C., 20 minutes
T1 construct: histidine tag (N); made in house; host or cells: Escherichia coli BL21-CodonPlus(DE3)-RIL
T1 sequence (O14965 1-403): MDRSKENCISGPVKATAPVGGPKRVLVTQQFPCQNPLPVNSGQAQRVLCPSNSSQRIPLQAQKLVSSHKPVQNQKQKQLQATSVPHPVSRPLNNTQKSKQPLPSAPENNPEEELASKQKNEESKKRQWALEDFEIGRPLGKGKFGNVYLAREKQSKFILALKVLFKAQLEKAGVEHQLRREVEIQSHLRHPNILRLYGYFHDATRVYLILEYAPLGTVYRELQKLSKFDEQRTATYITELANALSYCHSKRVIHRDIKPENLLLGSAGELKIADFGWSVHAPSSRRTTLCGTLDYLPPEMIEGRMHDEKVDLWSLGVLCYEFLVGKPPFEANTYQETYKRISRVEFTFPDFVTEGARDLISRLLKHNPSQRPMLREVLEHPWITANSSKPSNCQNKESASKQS
In short: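 His-tagged Aurora A expressed in E. coli, Ni-purified; reaction in 50 mM Tris pH 7.4, 15 mM Mg acetate, 0.2 mM EDTA with 100 μM Kemptide, 20 μM ATP plus [γ-33P]ATP, 20 min at 30 °C. Phosphopeptide captured on P81 filters and counted by scintillation; DMSO control.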

Aurora B = target: T2, Aurora B (Homo sapiens, UniProt Q96GD4); assay: Aurora B inhibitory action (33P-ATP kinase assay, Kemptide substrate); format: biochemical; conditions: 100 μM ATP, 30° C., 20 minutes
T2 construct: histidine tag (N); made in house; host or cells: Escherichia coli BL21-CodonPlus(DE3)-RIL
T2 sequence (Q96GD4 whole entry): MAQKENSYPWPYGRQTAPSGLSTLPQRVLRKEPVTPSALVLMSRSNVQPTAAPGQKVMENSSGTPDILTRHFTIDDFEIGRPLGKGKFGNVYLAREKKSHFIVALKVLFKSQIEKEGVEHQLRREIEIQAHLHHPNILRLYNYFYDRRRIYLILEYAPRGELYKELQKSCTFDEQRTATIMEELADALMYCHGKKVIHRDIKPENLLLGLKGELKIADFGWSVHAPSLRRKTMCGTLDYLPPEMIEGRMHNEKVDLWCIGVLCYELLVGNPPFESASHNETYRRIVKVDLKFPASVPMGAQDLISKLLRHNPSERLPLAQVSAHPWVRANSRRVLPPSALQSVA
In short: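 His-tagged Aurora B expressed in E. coli, reacted with 100 μM Kemptide, 100 μM ATP plus [γ-33P]ATP in Tris pH 7.4, 15 mM Mg acetate, 0.2 mM EDTA, 30 °C, 20 min. Peptide captured on P81 filters for scintillation counting; compounds added from DMSO dilutions.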

[1] = system: Human cervical cancer cells (HeLa S3); assay: Cell growth inhibitory effect, WST-8 method; format: cell-based; conditions: 72 h, HeLa S3, three days incubation
From the text: Method for Judging the Pharmaceutical Effect Using cells
Fetal calf serum (FCS) was purchased from Moregate Biotech, and DMEM medium was purchased from Invitrogen Corp. WST-8 was purchased from Kishida Chemical Co., Ltd.
(§1) Human cervical cancer cells (HeLa S3) were obtained from the American Type Culture Collection (ATCC).
(§2) c) Method of Judging the Effect
Cells were suspended in a DMEM medium containing 10% FCS, and the cell suspension was dispensed to a 96-well plastic plate at a rate of 750 cells/l 00 microliters per well. The plate was incubated overnight in 5% CO2-95% air at 37° C. A drug was subjected to graded dilution in dimethylsulfoxide and further diluted with a DMEM medium containing 10% FCS. Then, the dilution was dispensed to the plate on which cells had been disseminated, at a rate of 100 microliters per well. The plate was incubated for further three days in 5% CO2-95% air at 37° C. Cell growth after incubation was measured by the WST-8 method (H. Tominaga, et al., Anal. Commun., 36, 47-50 (1999)). Here, the WST-8 method refers to a method in which 20 microliters of a WST-8 reagent solution is added to each well, incubation is conducted at 37° C. for 45 minutes, the plate is stirred, and the amount of formazan produced is measured by a calorimetric method to determine the inhibitory rate of the drug. The concentration for 50% growth inhibition (EC50, IM) of the compound was determined.

[2] = system: Human cervical cancer cells (HeLa S3); assay: Effect by combined use of drugs in cells (with paclitaxel), WST-8 method; format: cell-based; conditions: three days; for inhibition at 0.1 µM: HeLa S3, compound 0.1 μM alone; for inhibition at 0.3 µM: HeLa S3, compound 0.3 μM alone
From the text: Method for Judging the Effect by Combined Use of Drugs in Cells
Fetal calf serum (FCS) was purchased from Moregate Biotech, DMEM medium from Invitrogen Corp., paclitaxel (tradename: Taxol) from Sigma-Aldrich, Inc., and WST-8 from Kishida Chemical Co., Ltd.
as §1, §2
Cells were suspended in a DMEM medium containing 10% FCS, and the cell suspension was dispensed to two 96-well plastic plates at a rate of 750 cells/100 microliters per well. The plates were incubated overnight in 5% CO2-95% air at 37° C. A drug was subjected to graded dilution in dimethylsulfoxide and flurther diluted with DMSO or with a DMEM medium containing 10% FCS and also containing 2 nM paclitaxel. Then, the dilutions were each dispensed to one of the plates on which cells had been disseminated, at a rate of 100 microliters per well. The final concentration of paclitaxel at this stage was 1 nM. Also, the concentrations in the case of sole administration of the compound according to the invention were 0.03, 0.1, 0.3, 1 and 3 μM. The plates were incubated for further three days in 5% CO2-95% air at 37° C. Cell growth after incubation was measured by the WST-8 method (H. Tominaga, et al., Anal. Commun., 36, 47-50 (1999)). Here, the WST-8 method refers to a method in which 20 microliters of a WST-8 reagent solution is added to each well, incubation is conducted at 37° C. for 45 minutes, the plate is stirred, and the amount of formazan produced is measured by a colorimetric method to determine the inhibitory rate of the drug. The growth inhibitory effects of paclitaxel and of the compound according to the invention were determined, with the value obtained in sole treatment of DMSO being defined as 0%.

[3] = HeLa S3, compound 0.1 μM + paclitaxel 1 nM
[4] = Homo sapiens, HeLa S3, 72 h, read-out: Cell growth inhibitory effect by sole administration of the compound of Example (%)
[5] = HeLa S3, compound 0.3 μM + paclitaxel 1 nM

| IC50 (Aurora A) [nM] | IC50 (Aurora B) [nM] | IC50 [1] [nM] | SMILES | other results |
| --- | --- | --- | --- | --- |
| 2.6 | 1300 | – | O=C(c1cccc(F)c1F)N1CCN(Cc2cc(NCC(F)F)cc(Nc3nccs3)n2)CC1 [Example 100, 6-((4-(2,3-difluorobenzoyl)piperazin-1-yl)methyl)-N4-(2,2-difluoroethyl)-N^2-thiazol-2-ylpyridine-2,4-diamine] | – |
| 0.76 | 250 | – | O=C(c1cccc(F)c1F)N1CCN(Cc2cc(N3CCOCC3)cc(Nc3nccs3)n2)CC1 [Example 103, 6-((4-(2,3-difluorobenzoyl)piperazin-1-yl)methyl)-4-morpholin-4-yl-N-thiazol-2-ylpyridin-2-amine] | – |
| 1.4 | 1000 | – | O=C(c1cccc(Cl)c1F)N1CCN(Cc2cc(-c3nn[nH]n3)cc(Nc3nccs3)n2)CC1 [Example 105, 6-((4-(3-chloro-2-fluorobenzoyl)piperazin-1-yl)methyl)-4-(2H-tetrazol-5-yl)-N-thiazol-2-ylpyridin-2-amine] | – |
| 0.42 | 520 | – | Cc1nc(-c2cc(CN3CCN(C(=O)c4cccc(Cl)c4F)CC3)nc(Nc3nccs3)c2)no1 [Example 109, 6-((4-(3-chloro-2-fluorobenzoyl)piperazin-1-yl)methyl)-4-(5-methyl-1,2,4-oxadiazol-3-yl)-N-thiazol-2-ylpyridin-2-amine] | – |
| 0.59 | 750 | – | Cc1noc(-c2cc(CN3CCN(C(=O)c4cccc(Cl)c4F)CC3)nc(Nc3nccs3)c2)n1 [Example 110, 6-((4-(3-chloro-2-fluorobenzoyl)piperazin-1-yl)methyl)-4-(3-methyl-1,2,4-oxadiazol-5-yl)-N-thiazol-2-ylpyridin-2-amine] | – |
| 0.81 | 230 | – | O=C(c1cccc(Cl)c1F)N1CCN(Cc2cccc(Nc3ncc(F)s3)n2)CC1 [Example 112, 6-((4-(3-chloro-2-fluorobenzoyl)piperazin-1-yl)methyl)-N-(5-fluorothiazol-2-yl)pyridin-2-amine] | – |

Further lines, the molecule ahead of its results:

| SMILES | IC50 (Aurora A) [nM] | IC50 (Aurora B) [nM] | IC50 [1] [nM] | other results |
| --- | --- | --- | --- | --- |
| O=C(c1cccc(Cl)c1F)N1CCN(Cc2cccc(Nc3nccs3)n2)CC1 [Example 5, 6-((4-(3-chloro-2-fluorobenzoyl)piperazin-1-yl)methyl)-N-thiazol-2-ylpyridin-2-amine] | 0.67 | 440 | 11000 | Cell growth inhibitory effect by combined administration of paclitaxel and the compound of Example (%) [2, 3]: 72.8%; inhibition at 0.1 µM [2, 4]: 0% |
| O=C(c1cccc(Cl)c1Cl)N1CCN(Cc2cccc(Nc3nccs3)n2)CC1 [Example 6, 6-((4-(2,3-dichlorobenzoyl)piperazin-1-yl)methyl)-N-thiazol-2-ylpyridin-2-amine] | 0.5 | 200 | 400 | Cell growth inhibitory effect by combined administration of paclitaxel and the compound of Example (%) [2, 5]: 89.0%; inhibition at 0.3 µM [2, 4]: 19.6% |
| Cc1cccc(C(=O)N2CCN(Cc3cccc(Nc4nccs4)n3)CC2)c1F [Example 8, 6-((4-(2-fluoro-3-methylbenzoyl)piperazin-1-yl)methyl)-N-thiazol-2-ylpyridin-2-amine] | 1.9 | 1400 | 250 | Cell growth inhibitory effect by combined administration of paclitaxel and the compound of Example (%) [2, 3]: 87.1%; inhibition at 0.1 µM [2, 4]: 4.6% |
| O=C(c1cccc(Cl)c1Cl)N1CCN(Cc2cccc(Nc3cc[nH]n3)n2)CC1 [Example 17, 6-((4-(2,3-dichlorobenzoyl)piperazin-1-yl)methyl)-N-1H-pyrazol-3-ylpyridin-2-amine] | 1.2 | 3200 | 1100 | Cell growth inhibitory effect by combined administration of paclitaxel and the compound of Example (%) [2, 5]: 73.8%; inhibition at 0.3 µM [2, 4]: 0% |
| O=C(O)C(F)(F)F.O=C(c1cccc(C(F)(F)F)c1F)N1CCN(Cc2cccc(Nc3cc[nH]n3)n2)CC1 [Example 19, 6-((4-(2-fluoro-3-(trifluoromethyl)benzoyl)piperazin-1-yl)methyl)-N-1H-pyrazol-3-ylpyridin-2-amine trifluoroacetate] | 0.9 | 530 | 920 | Cell growth inhibitory effect by combined administration of paclitaxel and the compound of Example (%) [2, 3]: 77.6%; inhibition at 0.1 µM [2, 4]: 0% |
| O=C(c1cccc(C(F)F)c1F)N1CCN(Cc2cccc(Nc3cc[nH]n3)n2)CC1 [Example 22, 6-((4-(3-(difluoromethyl)-2-fluorobenzoyl)piperazin-1-yl)methyl)-N-1H-pyrazol-3-ylpyridin-2-amine] | 2.9 | 1500 | 3500 | Cell growth inhibitory effect by combined administration of paclitaxel and the compound of Example (%) ([2]; HeLa S3, compound 1.0 μM + paclitaxel 1 nM): 80.9%; inhibition at 1 µM ([2]; Homo sapiens, HeLa S3, 72 h, HeLa S3, compound 1.0 μM alone, read-out: Cell growth inhibitory effect by sole administration of the compound of Example (%)): 18.5% |
| Cc1cc(Nc2cccc(CN3CCN(C(=O)c4cccc(Cl)c4F)CC3)n2)n[nH]1 [Example 25, 6-((4-(3-chloro-2-fluorobenzoyl)piperazin-1-yl)methyl)-N-(5-methyl-1H-pyrazol-3-yl)pyridin-2-amine] | 1.1 | 770 | 800 | Cell growth inhibitory effect by combined administration of paclitaxel and the compound of Example (%) [2, 3]: 65.1%; inhibition at 0.1 µM [2, 4]: 0% |
| Cc1cc(Nc2cccc(CN3CCN(C(=O)c4cccc(Br)c4F)CC3)n2)n[nH]1 [Example 28, 6-((4-(3-bromo-2-fluorobenzoyl)piperazin-1-yl)methyl)-N-(5-methyl-1H-pyrazol-3-yl)pyridin-2-amine] | 0.52 | 310 | 1100 | Cell growth inhibitory effect by combined administration of paclitaxel and the compound of Example (%) [2, 5]: 84.5%; inhibition at 0.3 µM [2, 4]: 0% |
| Cc1cc(Nc2cccc(CN3CCN(C(=O)c4cccc(C(F)(F)F)c4F)CC3)n2)n[nH]1 [Example 29, 6-((4-(2-fluoro-3-(trifluoromethyl)benzoyl)piperazin-1-yl)methyl)-N-(5-methyl-1H-pyrazol-3-yl)pyridin-2-amine] | 0.97 | 590 | 3300 | Cell growth inhibitory effect by combined administration of paclitaxel and the compound of Example (%) [2, 5]: 77.3%; inhibition at 0.3 µM [2, 4]: 0% |
| CC(=O)O[C@H]1C(=O)[C@@]2(C)[C@H]([C@H](OC(=O)c3ccccc3)[C@]3(O)C[C@H](OC(=O)[C@H](O)[C@@H](NC(=O)c4ccccc4)c4ccccc4)C(C)=C1C3(C)C)[C@]1(OC(C)=O)CO[C@@H]1C[C@@H]2O [paclitaxel, reference compound] | – | – | – | Cell growth inhibitory effect by sole administration of paclitaxel (1 nM) (%) ([2]; HeLa S3, paclitaxel 1 nM alone): 37.8% and 45.4% and 43.3% and 36.8%; inhibition at 0.001 µM ([2]; Homo sapiens, HeLa S3, 72 h, HeLa S3, paclitaxel 1 nM alone, read-out: Cell growth inhibitory effect by sole administration of paclitaxel (1 nM) (%)): 44.1% |
